{
  "source": "patent US4420482A",
  "about": "“1,4-Bis(acetylsalicyloyloxy)piperizine derivatives” (priority 1980, dated 1983)",
  "key": {"[1]": {"test": "Analgesic activity, pressure-induced pain on paw inflamed by brewers' yeast (test of Randall and Selitto)", "type": "in vivo, Sprague Dawley rat", "details": "for Pain sensitivity threshold (g) of inflamed paw: mean of 1 and 2 hr, P < 0.01 vs controls; for analgesic activity: equimolecular doses, S.1528 vs acetylsalicylic acid", "method": "The analgesic activity of S.1528 was assessed on the sensitivity threshold of pain induced by a pressure exerted on a rat's paw inflamed by application of brewers' yeast (90 Sprague Dawley male rats with a mean bodyweight of 150 g)."}, "[2]": {"test": "Paw carrageenin edema in the rat (anti-inflammatory activity)", "type": "in vivo, Sprague Dawley rat", "details": "for anti-inflammatory activity: equimolecular doses, S.1528 vs acetylsalicylic acid", "method": "The anti-inflammatory activity of S.1528 was assessed in the paw carrageenin edema (220 Sprague Dawley male rats with a mean bodyweight of 150 g). […] It should be noted that, in the overall context of the present patent application the term \"equimolecular doses\" of S.1528 indicates all those doses that contain acetylsalicylic residues in a quantity equivalent to that of acetylsalicylic acid used as reference drug."}, "[3]": {"test": "Comparative oral acute toxicity in the mouse", "type": "in vivo", "source_text": "The new derivative of acetylsalicylic acid, ie S.1528, has been showing a quite mild toxicity associated with marked anti-inflammatory, antipyretic and analgesic activities as well as with an evident anti-histaminic activity. Moreover, unlike acetylsalicylic acid, the new compound appear to be entirely devoid of any gastric injuring effect."}, "[4]": {"test": "Protective activity on lethal shock induced by inhaled histamine", "type": "in vivo, guinea-pig", "details": "for Protected animals: 20 guinea-pigs; for antihistaminic activity: inhaled histamine shock, guinea-pig", "source_text": "Table 4 points out the protective activity exerted by S.1528 versus the lethal shock induced in the guinea-pig by an inhaled histamine."}, "[5]": {"test": "Therapeutic index (ratio between toxic dose and active dose)", "type": "in vivo", "details": "2600:158 for S.1528; 1000:100 for acetylsalicylic acid"}, "[6]": {"test": "Antipyretic activity, hyperpyrexia induced by intramuscular brewers' yeast", "type": "in vivo, Sprague Dawley rat", "details": "for antipyretic activity: equimolecular doses, S.1528 vs acetylsalicylic acid; for mean temperature decrease: half dosage"}, "[7]": {"test": "Gastric ulcerogenic effect in the rat", "type": "in vivo, Sprague Dawley rat", "details": "for Incidence of gastric lesions (animals with lesions versus total treated): fasted 36 hours, killed 5 hours later"}},
  "data": [
    {"smiles": "CC(=O)Oc1ccccc1C(=O)O", "note": "[Acetylsalicylic acid, acetylsalicylic acid, reference compound]", "values": [
      {"measurement": "Threshold percent increase vs. controls", "setting": "[1]; 110 mg/kg/os", "value": 36.2, "unit": "%"},
      {"measurement": "Pain sensitivity threshold (g) of inflamed paw", "setting": "[1]; 110 mg/kg/os", "value": "122.6 ± 7.1", "unit": "g"},
      {"measurement": "Threshold percent increase vs. controls", "setting": "[1]; 221 mg/kg/os", "value": 71.2, "unit": "%"},
      {"measurement": "Pain sensitivity threshold (g) of inflamed paw", "setting": "[1]; 221 mg/kg/os", "value": "154.1 ± 5.7", "unit": "g"},
      {"measurement": "analgesic activity", "setting": "[1]", "value": "quantitatively similar activity"},
      {"measurement": "Comparative edema decrease in the various groups of untreated control animals", "setting": "[2]; 55 mg/kg/os, P ns", "value": -28},
      {"measurement": "Comparative edema decrease in the various groups of untreated control animals", "setting": "[2]; 110 mg/kg/os, P <0.01", "value": -44},
      {"measurement": "Comparative edema decrease in the various groups of untreated control animals", "setting": "[2]; 221 mg/kg/os, P <0.01", "value": -79},
      {"measurement": "anti-inflammatory activity", "setting": "[2]", "value": "quantitatively superimposable anti-inflammatory activity"},
      {"measurement": "Mortality observed (7 days)", "setting": "[3]; 250 mg/kg/os", "value": 0},
      {"measurement": "Mortality observed (7 days)", "setting": "[3]; 500 mg/kg/os", "value": 0},
      {"measurement": "Mortality observed (7 days)", "setting": "[3]; 750 mg/kg/os", "value": "4/20"},
      {"measurement": "Mortality observed (7 days)", "setting": "[3]; 1000 mg/kg/os", "value": "10/20"},
      {"measurement": "Mortality observed (7 days)", "setting": "[3]; 1250 mg/kg/os", "value": "14/20"},
      {"measurement": "Mortality observed (7 days)", "setting": "[3]; 1500 mg/kg/os", "value": "20/20"},
      {"measurement": "Mortality observed (7 days)", "setting": "[3]; 1750 mg/kg/os", "value": "10/10"},
      {"measurement": "oral LD 50", "setting": "[3]; oral, 10080 min", "value": 1000, "unit": "mg/kg"},
      {"measurement": "Time of resistance", "setting": "[4]; 110 mg/kg/os", "value": "66 ± 6.3", "unit": "min"},
      {"measurement": "Protected animals", "setting": "[4]; 110 mg/kg/os", "value": 0, "unit": "animals"},
      {"measurement": "Time of resistance", "setting": "[4]; 221 mg/kg/os", "value": 54, "unit": "min"},
      {"measurement": "Protected animals", "setting": "[4]; 221 mg/kg/os", "value": 0, "unit": "animals"},
      {"measurement": "antihistaminic activity", "setting": "[4]", "value": "entirely devoid of any antihistaminic activity"},
      {"measurement": "therapeutic index (ratio between the toxic dose and the active dose)", "setting": "[5]", "value": 10},
      {"measurement": "antipyretic activity", "setting": "[6]", "value": "quite the same antipyretic activity"},
      {"measurement": "mean temperature decrease", "setting": "[6]; 75 mg/kg/os", "value": 0.4, "unit": "degrees centigrades"}
    ]},
    {"smiles": "CC(=O)Oc1ccccc1C(=O)OCCN1CCN(CCOC(=O)c2ccccc2OC(C)=O)CC1", "note": "[S.1528, 1,4-BIS-[2-(ACETYLSALICYLOYLOXY)ETHYL] PIPERAZINE]", "values": [
      {"measurement": "Threshold percent increase vs. controls", "setting": "[1]; 158 mg/kg/os", "value": 41.3, "unit": "%"},
      {"measurement": "Pain sensitivity threshold (g) of inflamed paw", "setting": "[1]; 158 mg/kg/os", "value": "127.2 ± 6.3", "unit": "g"},
      {"measurement": "Threshold percent increase vs. controls", "setting": "[1]; 317 mg/kg/os", "value": 69.1, "unit": "%"},
      {"measurement": "Pain sensitivity threshold (g) of inflamed paw", "setting": "[1]; 317 mg/kg/os", "value": "152.2 ± 8.4", "unit": "g"},
      {"measurement": "analgesic activity", "setting": "[1]", "value": "quantitatively similar activity"},
      {"measurement": "Comparative edema decrease in the various groups of untreated control animals", "setting": "[2]; 79 mg/kg/os, P ns", "value": -23},
      {"measurement": "Comparative edema decrease in the various groups of untreated control animals", "setting": "[2]; 158 mg/kg/os, P <0.01", "value": -52},
      {"measurement": "Comparative edema decrease in the various groups of untreated control animals", "setting": "[2]; 317 mg/kg/os, P <0.01", "value": -83},
      {"measurement": "anti-inflammatory activity", "setting": "[2]", "value": "quantitatively superimposable anti-inflammatory activity"},
      {"measurement": "Mortality observed (7 days)", "setting": "[3]; 750 mg/kg/os", "value": "0/10"},
      {"measurement": "Mortality observed (7 days)", "setting": "[3]; 1000 mg/kg/os", "value": "0/10"},
      {"measurement": "Mortality observed (7 days)", "setting": "[3]; 1500 mg/kg/os", "value": "0/20"},
      {"measurement": "Mortality observed (7 days)", "setting": "[3]; 1750 mg/kg/os", "value": "0/20"},
      {"measurement": "Mortality observed (7 days)", "setting": "[3]; 2000 mg/kg/os", "value": "4/20"},
      {"measurement": "Mortality observed (7 days)", "setting": "[3]; 2250 mg/kg/os", "value": "5/20"},
      {"measurement": "Mortality observed (7 days)", "setting": "[3]; 2500 mg/kg/os", "value": "8/20"},
      {"measurement": "Mortality observed (7 days)", "setting": "[3]; 2750 mg/kg/os", "value": "12/20"},
      {"measurement": "Mortality observed (7 days)", "setting": "[3]; 3000 mg/kg/os", "value": "16/20"},
      {"measurement": "LD50 at 168 h", "setting": "[3]; in vivo, oral, read-out: oral LD 50", "value": "~2600", "unit": "mg/kg"},
      {"measurement": "Mean number of gastric ulcerations (mm)", "setting": "[7]; 158 mg/kg, os", "value": 0, "unit": "mm"},
      {"measurement": "Incidence of gastric lesions (animals with lesions versus total treated)", "setting": "[7]; 158 mg/kg, os", "value": "0/20"},
      {"measurement": "Mean number of gastric ulcerations (mm)", "setting": "[7]; 317 mg/kg, i.p.", "value": 0, "unit": "mm"},
      {"measurement": "Incidence of gastric lesions (animals with lesions versus total treated)", "setting": "[7]; 317 mg/kg, i.p.", "value": "0/20"},
      {"measurement": "Mean number of gastric ulcerations (mm)", "setting": "[7]; 317 mg/kg, os", "value": 0, "unit": "mm"},
      {"measurement": "Incidence of gastric lesions (animals with lesions versus total treated)", "setting": "[7]; 317 mg/kg, os", "value": "0/20"},
      {"measurement": "gastric injuring effect", "setting": "[7]; equimolecular doses, rat", "value": "no gastric injuring effect"},
      {"measurement": "Percent Protection", "setting": "[4]; 158 mg/kg/os", "value": 60, "unit": "%"},
      {"measurement": "Time of resistance", "setting": "[4]; 158 mg/kg/os", "value": 523, "unit": "min"},
      {"measurement": "Protected animals", "setting": "[4]; 158 mg/kg/os", "value": 12, "unit": "animals"},
      {"measurement": "Percent Protection", "setting": "[4]; 317 mg/kg/os", "value": 100, "unit": "%"},
      {"measurement": "Time of resistance", "setting": "[4]; 317 mg/kg/os", "value": "> 720", "unit": "min"},
      {"measurement": "Protected animals", "setting": "[4]; 317 mg/kg/os", "value": 20, "unit": "animals"},
      {"measurement": "ED50", "setting": "[4]; Cavia porcellus, read-out: dose that protects 50 percent of the guinea-pigs from the onset of a shock due to histamine", "value": 158, "unit": "mg/kg"},
      {"measurement": "antihistaminic activity", "setting": "[4]", "value": "evident antihistaminic activity"},
      {"measurement": "therapeutic index (ratio between the toxic dose and the active dose)", "setting": "[5]", "value": 16.45},
      {"measurement": "antipyretic activity", "setting": "[6]", "value": "quite the same antipyretic activity"},
      {"measurement": "mean temperature decrease", "setting": "[6]; 118.5 mg/kg/os", "value": 0.4, "unit": "degrees centigrades"}
    ]}
  ]
}
